Data published in patent US20190292215A1, “COMPOUNDS, COMPOSITIONS, AND METHODS FOR THE TREATMENT OF DISEASE” (Sperovie Biosciences, Inc., priority 2016, published 2019).

Tested on: IFN-β
Experiment: Semi-quantitative RT-PCR of IFN-β gene expression in THP1-Dual / KO STING cells
Type: cell-based
Conditions: THP1-WT, treated 5 or 22 hrs; Cmd 1 alone (no lipo)
Procedure: RNA samples were prepared using Qiagen RNeasy kit and the expression of IFNβ, IRF7 and housekeeper gene β-actin was determined using semi-quantitative reverse transcription (RT)-PCR (started with equal amounts of RNA). PCR products were subjected to 1% agarose gel electrophoresis.
Lipofectamine 2000 also activates IFN-β gene, but cells were treated with Cmd 1 alone (no lipo). DMSO is the negative control.

Nc1nc2c(ncn2[C@@H]2O[C@@H]3COP(=O)(O)O[C@H]4[C@@H](O)[C@H](n5cnc6c(N)ncnc65)O[C@@H]4COP(=O)(O)O[C@@H]2[C@@H]3O)c(=O)[nH]1 [2′3′-cGAMP]
Time to induce IFN-β gene expression: ≤ 5 h
